Source: patent US20120035265A1, “COMPOSITIONS, METHODS, AND DEVICES FOR THE TREATMENT OF DYSMENORRHEA” (MediciNova, Inc., priority 2010, published 2012)
Where two headings read alike, the source gives them in different places.

Tested on: uterine muscle isolated from pregnant rats
Test: PG F2α-induced contraction of uterine muscle isolated from pregnant rats
Type: cell-based, rat
Conditions: Rattus norvegicus, contraction induced with 5 μg/mL of PG F2α, mean ± standard error of 10 samples
Description: After SD-strain rats on Day 17 of pregnancy were exsanguinated to death, the uterus was isolated to prepare up to 8 myometrial strips (about 4 mm×10 mm) per animal in the direction of the longitudinal muscle while avoiding the adhesion to the placenta. Each strip was suspended in an organ bath containing 10 mL of a modified Locke-Ringer solution at […] (aerated with 95% O2+5% CO2 gas) with a load of about 1.0 g. After the suspended sample became stable for static tension, 5 μg/mL of PG F2α or 1 mU/mL of oxytocin was added to induce contraction. After the sample was allowed to stand for at least 30 minutes to confirm stable rhythmic contraction for frequency and amplitude, the test, control, or positive control substance solution was added cumulatively at intervals of 5 minutes. After the treatment was completed, 1×10^−5 mol/L of forskolin was added to obtain maximal relaxation. The contractile force of the uterine sample was delivered via a force displacement transducer to a strain pressure amplifier and recorded on a Rectigraph.
Considering the sum of the uterine contraction for 5 minutes before treatment as 100%, the response rate to each concentration of the test, control, or positive control substance solution was calculated from the sum of uterine contraction after treatment for both PG F2α and oxytocin induced contraction. Then, the response rates obtained were used to prepare a concentration-response curve for each sample. The maximum relaxation obtained by adding forskolin was considered as a baseline. Variable points (peaks) with amplitude (tension) of […] or lower were excluded from analysis. Samples showing any of the following events were not used for the study or excluded from analysis.
Microsoft® Excel 2000 (Microsoft Corp.) was used to sum up and calculate data and prepare tables and figures. Using a concentration-response curve prepared for each sample (X axis: log value of the concentration of the substance added, Y axis: response rate), a negative log value (pEC50) of the concentration that inhibited the uterine contraction by 50% (EC50) was calculated from a straight line connecting the 2 concentrations just above and below 50%, and then converted to EC50 (unit: mol/L).

- EC50 (read-out: EC50): 66.4 ± 19.3 nM
- EC50 (read-out: pEC50 (converted)): 51.3 nM
SMILES: CN(C)C(=O)COc1ccc2c(c1)C[C@@H](NC[C@H](O)c1ccc(O)c(CCO)c1)CC2 [MN-221, (−)-bis(2-{[(2S)-2-({(2R)-2-hydroxy-2-[4-hydroxy-3-(2-hydroxyethyl)phenyl]ethyl}amino)-1,2,3,4-tetrahydronaphthalen-7-yl]oxy}-N,N-dimethyl-acetamide) monosulfate]
